Experimental findings from publication PMC11189382, “Structural basis of connexin-36 gap junction channel inhibition” (Cell Discovery, 2024) are described below.

Test [1] concerns the target T1, Cx36 (Homo sapiens, UniProt Q9UKL4).
T1 construct: gene GJD2; purified in detergent; gap junction channel of docked hexameric hemichannels
T1 sequence (Q9UKL4 1-321): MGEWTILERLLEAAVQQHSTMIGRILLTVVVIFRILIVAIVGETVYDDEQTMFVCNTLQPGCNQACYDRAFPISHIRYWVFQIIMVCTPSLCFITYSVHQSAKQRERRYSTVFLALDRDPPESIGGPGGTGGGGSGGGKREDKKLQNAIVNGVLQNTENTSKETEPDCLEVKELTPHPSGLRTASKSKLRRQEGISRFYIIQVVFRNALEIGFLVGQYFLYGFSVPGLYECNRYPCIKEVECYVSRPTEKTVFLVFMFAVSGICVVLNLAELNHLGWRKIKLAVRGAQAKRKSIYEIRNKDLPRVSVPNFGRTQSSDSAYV
Kind of test: cryo-EM structure of the complex. It counts as binding. The following applies: detergent, pore pocket between TM1 and TM2 at interface of two monomers.

For test [2], the target named is T1, Cx36. As to the kind of experiment: ligand binding assay with purified Cx36.

On to `C=C[C@H]1CN2CC[C@H]1C[C@@H]2[C@@H](O)c1ccnc2ccc(OC)cc12` [quinidine], for which the “cryo-EM structure of the complex” value at Cx36 [1] (1 mM drug) is “Cx36–quin, and Cx36–quid feature additional densities, corresponding to six bound drugs per Cx36 hexamer”. This compound also displayed a dissociation constant Kd at Cx36 [2] of 58 ± 9 µM.

For `C=C[C@H]1CN2CC[C@H]1C[C@H]2[C@H](O)c1ccnc2ccc(OC)cc12` [quinine], the “cryo-EM structure of the complex” value at Cx36 [1] (1 mM drug) was “Cx36–quin, and Cx36–quid feature additional densities, corresponding to six bound drugs per Cx36 hexamer”. The compound also registered a Kd on Cx36 [2] of 29 ± 5.3 µM.

Regarding `OC(c1cc(C(F)(F)F)nc2c(C(F)(F)F)cccc12)C1CCCCN1` (racemic) [mefloquine], the “cryo-EM structure of the complex” value at Cx36 [1] (1 mM racemic drug) is given as “although we used a racemic mixture of the drug, the high-resolution structure captured the S/R-enantiomer”. The Kd at Cx36 [2] worked out at 10.4 ± 1.3 µM.

By Kd is commonly meant the free concentration of one partner at which half of the binding sites on the other are occupied at equilibrium, for simple one-to-one binding. Read a low Kd as tighter binding.
